Values after ≈ are worked out from the molar mass of the structure shown.
Experiments:
Assay in all cases: ≥ marks a high value that may be exact or a test limit, other limits are often not marked, values filed in µg/mL are converted to µM
[1] = test system: Bacillus megaterium ATCC 10778
[2] = test system: Candida albicans MDM8
[3] = test system: Candida tropicalis IOC 4560
[4] = test system: Enterobacter cloacae beta-12
[5] = test system: Escherichia coli SBS 363
[6] = test system: Micrococcus luteus A270
[7] = test system: Serratia marcescens ATCC 4112
[8] = test system: Staphylococcus aureus ATCC 29213
[9] = test system: Staphylococcus epidermidis ATCC 12228
[10] = test system: Escherichia coli BW25113
[11] = test system: Escherichia coli J2210
[12] = test system: Escherichia coli JJ2489
[13] = test system: Escherichia coli JW0013
[14] = test system: Escherichia coli JW0368 ΔsbmA
[15] = test system: Escherichia coli JW2778 ΔygdD
[16] = test system: Escherichia coli MC1041
[17] = test system: Salmonella enterica subsp. enterica serovar Enteritidis MH91989
[18] = test system: Salmonella typhimurium SL1344
[19] = test system: Acinetobacter baumannii
[20] = test system: Bacillus cereus CGMCC 1.932
[21] = test system: Bacillus subtilis CMCC 63501
[22] = test system: Enterococcus faecalis ATCC 29212
[23] = test system: Escherichia coli 078
[24] = test system: Escherichia coli K88
[25] = test system: Escherichia coli K99
[26] = test system: Escherichia coli UB1005
[27] = test system: Listeria monocytogenes CGMCC 1.1075
[28] = test system: Pseudomonas aeruginosa ATCC 27853
[29] = test system: Pseudomonas aeruginosa PAO1
[30] = test system: Salmonella enterica subsp. enterica serovar Pullorum ATCC 7913
[31] = test system: Salmonella enterica subsp. enterica serovar Typhimurium ATCC 14028
[32] = test system: Salmonella typhimurium ATCC 7731
[33] = test system: Staphylococcus aureus ATCC 25923
[34] = test system: Staphylococcus aureus ATCC 43300
[35] = test system: Pseudomonas aeruginosa H1001

CC(C)C[C@H](NC(=O)[C@H](C)NC(=O)[C@H](CCCCN)NC(=O)[C@H](CC(C)C)NC(=O)[C@@H](N)Cc1ccccc1)C(=O)N[C@@H](Cc1c[nH]c2ccccc12)C(=O)N[C@@H](CCCCN)C(=O)N[C@H](C(=O)N[C@@H](C)C(=O)N[C@@H](CCCCN)C(=O)N[C@@H](CCCCN)C(=O)N[C@H](C(=O)N[C@@H](Cc1ccccc1)C(N)=O)C(C)C)C(C)C [FLKALWKVAKKVF] showed an MIC [1] of 0.4 µM (≈ 0.631 µg/mL), an MIC [2] of 1.6 µM (≈ 2.52 µg/mL) and an MIC [3] of 0.8 µM (≈ 1.26 µg/mL). The MIC [4] was 3.1 µM (≈ 4.89 µg/mL), the MIC [5] was 1.6 µM (≈ 2.52 µg/mL) and the MIC [6] was 0.4 µM (≈ 0.631 µg/mL). It also gave an MIC [7] of 0.1 µM (≈ 0.158 µg/mL), an MIC [8] of 0.8 µM (≈ 1.26 µg/mL) and an MIC [9] of 3.1 µM (≈ 4.89 µg/mL).
With CC(C)C[C@H](NC(=O)[C@H](CCCN=C(N)N)NC(=O)[C@@H]1CCCN1C(=O)[C@H](CCCN=C(N)N)NC(=O)[C@@H]1CCCN1C(=O)[C@@H]1CCCN1C(=O)[C@H](CCCN=C(N)N)NC(=O)[C@@H]1CCCN1C(=O)[C@H](CCC(N)=O)NC(=O)[C@@H]1CCCN1C(=O)[C@H](CCCCN)NC(=O)[C@H](Cc1ccc(O)cc1)NC(=O)[C@@H](NC(=O)[C@@H]1CCCN1C(=O)[C@H](CCCCN)NC(=O)[C@H](CC(N)=O)NC(=O)[C@H](CC(N)=O)NC(=O)CN)C(C)C)C(=O)O [GNNKPVYKPQPRPPRPRL] the MIC [10] was 0.096 µM (≈ 0.203 µg/mL), the MIC [11] was 0.267 µM (≈ 0.565 µg/mL) and the MIC [12] was 0.252 µM (≈ 0.533 µg/mL). For the same molecule, the MIC [13] was 0.096 µM (≈ 0.203 µg/mL), the MIC [14] was 0.192 µM (≈ 0.406 µg/mL) and the MIC [15] was 0.192 µM (≈ 0.406 µg/mL). The MIC [16] was 0.192 µM (≈ 0.406 µg/mL), the MIC [17] was 0.133 µM (≈ 0.281 µg/mL) and the MIC [18] was 0.192 µM (≈ 0.406 µg/mL).
CC(C)C[C@H](NC(=O)[C@H](CCCN=C(N)N)NC(=O)[C@@H]1CCCN1C(=O)[C@H](CCCN=C(N)N)NC(=O)[C@@H]1CCCN1C(=O)[C@@H]1CCCN1C(=O)[C@H](CCCN=C(N)N)NC(=O)[C@@H]1CCCN1C(=O)[C@H](CCC(N)=O)NC(=O)[C@@H]1CCCN1C(=O)[C@H](CCCCN)NC(=O)[C@H](Cc1ccc(O)cc1)NC(=O)[C@@H](NC(=O)[C@@H]1CCCN1C(=O)[C@H](CCCN=C(N)N)NC(=O)[C@H](CC(N)=O)NC(=O)[C@H](CC(N)=O)NC(=O)CN)C(C)C)C(=O)O [GNNRPVYKPQPRPPRPRL] showed an MIC [10] of 0.067 µM (≈ 0.144 µg/mL), an MIC [11] of 0.252 µM (≈ 0.54 µg/mL) and an MIC [12] of 0.133 µM (≈ 0.285 µg/mL). It also gave an MIC [13] of 0.062 µM (≈ 0.133 µg/mL), an MIC [14] of 0.096 µM (≈ 0.206 µg/mL) and an MIC [15] of 0.133 µM (≈ 0.285 µg/mL). For the same molecule, the MIC [16] was 0.133 µM (≈ 0.285 µg/mL), the MIC [17] was 0.096 µM (≈ 0.206 µg/mL) and the MIC [18] was 0.192 µM (≈ 0.411 µg/mL).
CC[C@H](C)[C@H](NC(=O)[C@H](CCCN=C(N)N)NC(=O)[C@H](Cc1c[nH]c2ccccc12)NC(=O)[C@H](CCCN=C(N)N)NC(=O)[C@H](Cc1c[nH]c2ccccc12)NC(=O)[C@H](Cc1c[nH]c2ccccc12)NC(=O)[C@H](Cc1c[nH]c2ccccc12)NC(=O)[C@H](CCCN=C(N)N)NC(=O)[C@H](Cc1c[nH]c2ccccc12)NC(=O)[C@H](CCCN=C(N)N)NC(=O)CN)C(N)=O [GRWRWWWRWRI] gave an MIC [19] of 2 µM (≈ 3.49 µg/mL), an MIC [20] of 8 µM (≈ 13.9 µg/mL) and an MIC [21] of 4 µM (≈ 6.97 µg/mL). The MIC [22] was 2 µM (≈ 3.49 µg/mL), the MIC [23] was 4 µM (≈ 6.97 µg/mL) and the MIC [24] was 4 µM (≈ 6.97 µg/mL). For the same molecule, the MIC [25] was 8 µM (≈ 13.9 µg/mL), the MIC [26] was 8 µM (≈ 13.9 µg/mL) and the MIC [27] was 1 µM (≈ 1.74 µg/mL). For the same molecule, the MIC [28] was 8 µM (≈ 13.9 µg/mL), the MIC [29] was 8 µM (≈ 13.9 µg/mL) and the MIC [30] was 2 µM (≈ 3.49 µg/mL). For the same molecule, the MIC [31] was 4 µM (≈ 6.97 µg/mL), the MIC [32] was 16 µM (≈ 27.9 µg/mL) and the MIC [33] was 2 µM (≈ 3.49 µg/mL). It also gave an MIC [34] of 4 µM (≈ 6.97 µg/mL) and an MIC [9] of 4 µM (≈ 6.97 µg/mL).
CC(C)[C@H](NC(=O)[C@H](CCCN=C(N)N)NC(=O)[C@H](Cc1c[nH]c2ccccc12)NC(=O)[C@H](CCCN=C(N)N)NC(=O)[C@H](Cc1c[nH]c2ccccc12)NC(=O)[C@H](Cc1c[nH]c2ccccc12)NC(=O)[C@H](Cc1c[nH]c2ccccc12)NC(=O)[C@H](CCCN=C(N)N)NC(=O)[C@H](Cc1c[nH]c2ccccc12)NC(=O)[C@@H](N)CCCN=C(N)N)C(N)=O [RWRWWWRWRV] was tested, and the MIC [19] was 2 µM (≈ 3.34 µg/mL), the MIC [20] was 16 µM (≈ 26.8 µg/mL) and the MIC [21] was 4 µM (≈ 6.69 µg/mL). It also gave an MIC [22] of 4 µM (≈ 6.69 µg/mL), an MIC [23] of 4 µM (≈ 6.69 µg/mL) and an MIC [24] of 4 µM (≈ 6.69 µg/mL). The MIC [25] was 8 µM (≈ 13.4 µg/mL), the MIC [26] was 8 µM (≈ 13.4 µg/mL) and the MIC [27] was 1 µM (≈ 1.67 µg/mL). The MIC [28] was 16 µM (≈ 26.8 µg/mL), the MIC [29] was 16 µM (≈ 26.8 µg/mL) and the MIC [30] was 4 µM (≈ 6.69 µg/mL). The MIC [31] was 8 µM (≈ 13.4 µg/mL), the MIC [32] was 8 µM (≈ 13.4 µg/mL) and the MIC [33] was 4 µM (≈ 6.69 µg/mL). The MIC [34] was 4 µM (≈ 6.69 µg/mL) and the MIC [9] was 4 µM (≈ 6.69 µg/mL).
CC[C@H](C)[C@H](NC(=O)[C@H](CCCN=C(N)N)NC(=O)[C@H](CCCN=C(N)N)NC(=O)[C@@H]1CCCN1C(=O)[C@@H]1CCCN1C(=O)[C@H](CCCN=C(N)N)NC(=O)[C@@H]1CCCN1C(=O)[C@H](CCCN=C(N)N)NC(=O)[C@@H]1CCCN1C(=O)[C@H](CC(C)C)NC(=O)[C@H](Cc1ccc(O)cc1)NC(=O)[C@@H]1CCCN1C(=O)[C@@H]1CCCN1C(=O)[C@H](CCCCN)NC(=O)[C@H](CC(=O)O)NC(=O)[C@@H](N)C(C)C)C(=O)N[C@@H](Cc1ccc(O)cc1)C(=O)N[C@@H](CS)C(=O)N[C@@H](CCCN=C(N)N)C(=O)NCC(=O)O [VDKPPYLPRPRPPRRIYCRG] was tested, and the MIC [35] was 0.0575 µM (≈ 0.14 µg/mL).
CC[C@H](C)[C@H](NC(=O)[C@H](CCCN=C(N)N)NC(=O)[C@H](CCCN=C(N)N)NC(=O)[C@@H]1CCCN1C(=O)[C@@H]1CCCN1C(=O)[C@H](CCCN=C(N)N)NC(=O)[C@@H]1CCCN1C(=O)[C@H](CCCN=C(N)N)NC(=O)[C@@H]1CCCN1C(=O)[C@H](CC(C)C)NC(=O)[C@H](Cc1ccc(O)cc1)NC(=O)[C@@H]1CCCN1C(=O)[C@@H]1CCCN1C(=O)[C@H](CCCCN)NC(=O)[C@H](CC(=O)O)NC(=O)[C@@H](N)C(C)C)C(=O)N[C@@H](Cc1ccc(O)cc1)C(=O)N[C@@H](CC(N)=O)C(=O)N[C@@H](CCCCN)C(=O)NCC(=O)O [VDKPPYLPRPRPPRRIYNKG] was tested, and the MIC [35] was 0.107 µM (≈ 0.26 µg/mL).
CC[C@H](C)[C@H](NC(=O)[C@H](CCCN=C(N)N)NC(=O)[C@H](CCCN=C(N)N)NC(=O)[C@@H]1CCCN1C(=O)[C@H](CCCN=C(N)N)NC(=O)[C@H](CCCN=C(N)N)NC(=O)[C@@H]1CCCN1C(=O)[C@H](CCCN=C(N)N)NC(=O)[C@@H]1CCCN1C(=O)[C@H](CC(C)C)NC(=O)[C@H](Cc1ccc(O)cc1)NC(=O)[C@@H]1CCCN1C(=O)[C@@H]1CCCN1C(=O)[C@H](CCCCN)NC(=O)[C@H](CC(=O)O)NC(=O)[C@@H](N)C(C)C)C(=O)N[C@@H](Cc1ccc(O)cc1)C(=O)N[C@@H](CC(N)=O)C(=O)N[C@@H](CCCN=C(N)N)C(=O)NCC(=O)O [VDKPPYLPRPRRPRRIYNRG] showed an MIC [35] of 0.0878 µM (≈ 0.22 µg/mL).
